Laboratory results taken from paper PMC3673949, “Small Molecule R1498 as a Well-Tolerated and Orally Active Kinase Inhibitor for Hepatocellular Carcinoma and Gastric Cancer Treatment via Targeting Angiogenesis and Mitosis Pathways” (PLoS ONE, 2013).
“And” between values parts separate entries of the source, which are not always exact repeats. Equal entries are not always repeated. Where two headings read alike, the source gives them in different places.

Experiments:
[1] = system: human primary gastric tumor derived xenografts; assay: Three human GC primary tumor derived xenograft models (overall); assay type: in vivo, BALB/C nu/nu nude mice; details: three patient derived gastric xenografts, 25 mg/kg
Experimental: In human primary tumor models, fresh human gastric tumor tissues were directly implanted into nonobese diabetic and severe combined immune-deficient (NOD-SCID) mice within 5 hours post-surgery with 5 mm^3 fragments to establish primary tumor xenograft models. […] Treatment began when tumor volume reached 100∼150 mm^3. The tumor measurement and operation protocol was the same as cell line derived tumor model.

BEL-7404 xenograft = assay: Xenograft efficacy study; assay type: in vivo, BALB/C nu/nu nude mice
Experimental: (§3) Tumor cells were inoculated into the right flank of BALB/C nu/nu female nude mice (5∼6 weeks, 16∼18 g, obtained from Sino-British SIPPR/BK Lab. Animal Ltd, Shanghai, China) at optimal density based on our in-house validation study. After the tumor was established and reached 100∼150 mm^3, the mice were randomized into ten mice per group and received treatment according to the schedule. The tumor growth was recorded three times a week with the measurement of length (L) and width (W) by caliper, and calculated as tumor volume (TV, mm^3) = 0.5*L*W*W (mm). […] The tumor regression of individual mouse was defined - the tumor volume at the end was less than the tumor volume when treatment was initiated.

[2] = Single dose pharmacokinetic (SDPK) study; assay type: in vivo; details: Nude Mouse
Experimental: Before the pharmacokinetic study, animals were randomly assigned to the sampling groups (3 animals per time point). Ten additional mice were used to collected plasma blank for calibration curves. The mice were fasted overnight before oral administration. […] The plasma samples and the dose formulation were stored at −20°C until bioanalysis. The data acquisition and control system were created using Analyst 1.4 software from ABI Inc. The concentrations in plasma below the limit of quantitation (LOQ = 1 ng/mL) were designated as zero. […] For rat, dog and monkey SDPK, the blood samples were collected from jugular vein puncture.

Aurora kinase A = Aurora kinase A (Homo sapiens, UniProt O14965); assay: Z'-Lyte kinase activity assay; assay type: biochemical; details: mean of three independent experiments
Experimental: (§1) The affinity of R1498 against 402 kinases was determined by KINOMEScan® (Ambit Biosciences, San Diego, CA) and data were presented as dissociation constant (Kd) values. The inhibition on kinase activity of Aurora kinases and VEGFR2 was further characterized by Z’-Lyte kinase activity assays under corresponding ATP concentrations.

Aurora kinase B = Aurora kinase B (Homo sapiens, UniProt Q96GD4); assay: Z'-Lyte kinase activity assay; assay type: biochemical; details: mean of three independent experiments
Experimental: as §1

VEGFR2 = VEGFR2 (Homo sapiens, UniProt P35968); assay: Z'-Lyte kinase activity assay; assay type: biochemical; details: mean of three independent experiments
Experimental: as §1

SGC-7901 xenograft = assay: Xenograft efficacy study; assay type: in vivo, BALB/C nu/nu nude mice
Experimental: as §3

HGC-27 xenograft = assay: Xenograft efficacy study; assay type: in vivo, BALB/C nu/nu nude mice; details: HGC-27, 25 mg/kg twice a day per oral gavage
Experimental: as §3

[3] = Plasma and tumor exposure at steady state in xenograft-bearing mice; assay type: in vivo, nude mice; parameters: Tumor AUC @ SS: unit not given here; details: for AUC: nude, mouse, po, read-out: Plasma AUC @ SS
From the text: Supplementary file pone.0065264.s004.doc: Table S3 ED60/90 estimation from the R1498 exposure at steady state in tumors. The exposure in plasma and tumor at steady state were plot against tumor growth inhibiton rate to estimate the ED60/E90 doses. (DOC) Click here for additional data file.

[4] = system: HUVEC (VEGF 165 stimulated); assay: VEGF-induced HUVEC proliferation assay; assay type: cell-based; details: Homo sapiens, 0.5% FBS with VEGF 165, 72 h
Experimental: Each cell line was seeded in a 96-well tissue culture plate (Corning, NY) at a predetermined density in 180 µL complete medium, attached overnight and treated by compound for another 72 h. Then the medium was discarded and replaced with 10% CCK-8 (Dojindo, Kumamoto, Japan) in complete medium, then incubated the plates for another 2 h. The OD450 was measured with SpectraMAX 190 spectrophotometer (MDS, Sunnyvale, CA). A background absorbance of ODblank was subtracted from all wells.
In VEGF-induced HUVEC proliferation assay, the HUVECs suspended in 170 µL EGM-2 with 0.5% FBS were seeded and incubated overnight. After the cells attached, 10 µL 1 µg/ml recombinant human VEGF 165 (R&D systems, Minneapolis, MN) was added to each well together with 20 µl compound solutions prepared in EGM-2 with 0.5% FBS. The CCK-8 assay as above was used for determination of cell viability.

HCCLM3 xenograft = assay: Xenograft efficacy study; assay type: in vivo, BALB/C nu/nu nude mice; details: HCCLM3, 12.5 mg/kg twice a day per oral gavage
Experimental: as §3

SGC-7901 cells = assay: Cell cycle distribution by flow cytometry; assay type: cell-based, human; details: SGC-7901, 10 µM
Experimental: (§2) DNA content was measured with a FACS-Calibur cytometer (Becton Dickinson, San Jose, CA) and cell cycle distribution was calculated as described previously.

BEL-7402 cells = assay: Cell cycle distribution by flow cytometry; assay type: cell-based, human; details: BEL-7402, 10 µM
Experimental: as §2

VEGFR2, sequence (P35968 20-1356): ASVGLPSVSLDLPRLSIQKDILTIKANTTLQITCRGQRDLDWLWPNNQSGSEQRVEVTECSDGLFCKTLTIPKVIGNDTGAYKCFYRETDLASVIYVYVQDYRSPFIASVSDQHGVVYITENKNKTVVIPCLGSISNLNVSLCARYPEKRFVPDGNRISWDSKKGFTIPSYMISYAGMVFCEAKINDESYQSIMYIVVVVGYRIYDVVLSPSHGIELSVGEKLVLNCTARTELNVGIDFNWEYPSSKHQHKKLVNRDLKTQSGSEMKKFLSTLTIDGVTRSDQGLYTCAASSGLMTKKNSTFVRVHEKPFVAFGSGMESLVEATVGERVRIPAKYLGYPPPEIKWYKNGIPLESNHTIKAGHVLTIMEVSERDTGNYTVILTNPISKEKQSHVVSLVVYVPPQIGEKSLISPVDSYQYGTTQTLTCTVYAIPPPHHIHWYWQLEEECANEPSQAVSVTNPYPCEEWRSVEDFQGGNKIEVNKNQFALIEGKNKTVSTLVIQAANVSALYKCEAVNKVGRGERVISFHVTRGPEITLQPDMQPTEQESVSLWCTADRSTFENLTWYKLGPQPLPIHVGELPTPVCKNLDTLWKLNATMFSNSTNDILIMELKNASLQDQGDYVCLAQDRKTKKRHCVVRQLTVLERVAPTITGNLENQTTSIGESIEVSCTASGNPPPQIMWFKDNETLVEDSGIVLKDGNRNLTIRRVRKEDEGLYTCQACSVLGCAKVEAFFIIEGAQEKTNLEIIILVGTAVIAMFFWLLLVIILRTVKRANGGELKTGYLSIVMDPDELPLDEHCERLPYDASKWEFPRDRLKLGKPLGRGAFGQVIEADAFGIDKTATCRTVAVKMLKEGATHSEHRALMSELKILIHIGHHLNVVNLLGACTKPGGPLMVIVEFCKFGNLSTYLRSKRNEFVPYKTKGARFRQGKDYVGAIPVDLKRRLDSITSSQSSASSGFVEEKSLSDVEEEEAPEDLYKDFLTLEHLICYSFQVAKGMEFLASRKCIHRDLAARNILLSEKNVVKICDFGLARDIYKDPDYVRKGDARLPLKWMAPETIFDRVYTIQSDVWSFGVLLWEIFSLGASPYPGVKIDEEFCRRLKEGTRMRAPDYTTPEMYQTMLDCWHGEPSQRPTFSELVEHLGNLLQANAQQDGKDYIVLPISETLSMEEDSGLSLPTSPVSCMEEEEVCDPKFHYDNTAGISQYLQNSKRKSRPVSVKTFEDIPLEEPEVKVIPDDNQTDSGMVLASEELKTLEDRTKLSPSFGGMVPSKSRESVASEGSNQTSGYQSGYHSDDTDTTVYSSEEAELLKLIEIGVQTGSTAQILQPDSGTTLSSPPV
Aurora kinase A, sequence (O14965 whole entry): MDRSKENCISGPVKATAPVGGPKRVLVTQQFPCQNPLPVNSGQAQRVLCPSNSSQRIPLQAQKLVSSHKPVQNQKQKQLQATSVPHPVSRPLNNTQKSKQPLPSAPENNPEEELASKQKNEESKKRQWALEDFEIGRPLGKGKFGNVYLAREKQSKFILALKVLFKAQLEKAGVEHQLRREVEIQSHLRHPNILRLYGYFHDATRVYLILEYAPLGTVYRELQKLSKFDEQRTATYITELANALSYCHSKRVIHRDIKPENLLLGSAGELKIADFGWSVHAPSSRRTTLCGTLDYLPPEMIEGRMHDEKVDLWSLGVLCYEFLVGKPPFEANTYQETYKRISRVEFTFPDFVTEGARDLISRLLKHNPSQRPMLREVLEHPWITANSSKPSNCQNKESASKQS
Aurora kinase B, sequence (Q96GD4 whole entry): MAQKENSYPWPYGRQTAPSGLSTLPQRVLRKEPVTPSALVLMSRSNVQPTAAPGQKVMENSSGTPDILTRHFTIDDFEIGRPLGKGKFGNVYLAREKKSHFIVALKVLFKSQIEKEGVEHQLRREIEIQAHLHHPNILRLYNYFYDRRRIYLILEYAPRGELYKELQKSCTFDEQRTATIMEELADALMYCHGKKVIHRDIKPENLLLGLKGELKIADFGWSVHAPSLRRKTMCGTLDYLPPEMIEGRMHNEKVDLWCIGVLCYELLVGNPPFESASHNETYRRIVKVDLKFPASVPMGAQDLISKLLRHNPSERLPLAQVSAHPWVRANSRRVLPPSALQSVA

COc1ccc2c(c1)C(c1ccccc1Cl)=Nc1c(n[nH]c1C)N2 [R1498]
Final TGI% [1]: 73.6 ∼ 91.6%
regression rates [1]: 10–30% and 10∼30%
Final TGI% (BEL-7404 xenograft; BEL-7404, 12.5 mg/kg twice a day per oral gavage, day of study termination (Table S2)): 90%
Body weight changes% (BEL-7404 xenograft; BEL-7404, 12.5 mg/kg twice a day per oral gavage, before vs after treatment): -1.9%
Tumor Regression (BEL-7404 xenograft; BEL-7404, 12.5 mg/kg twice a day per oral gavage, mice with regression/group): 0/10
Final TGI% (BEL-7404 xenograft; BEL-7404, 3.125 mpk, bid, PO): 47%
Final TGI% (BEL-7404 xenograft; BEL-7404, 6.25 mpk, bid, PO): 67%
Oral BA ([2]; 10-100 mg/kg, micronized API suspension): 44-92 (10-100 mg/kg) %
clearance ([2]; male, plasma, iv, 2 mg/kg, single dose): 0.378 L/h/kg
Vd ([2]; male, plasma, iv, 2 mg/kg, single dose, read-out: Vdss): 2 L/kg
half-life ([2]; male, plasma, iv 2 mg/kg): 4 h
IC50 (Aurora kinase A): 0.067 ± 0.004 µM
IC50 (Aurora kinase B): 0.167 ± 0.013 µM
IC50 (VEGFR2): 0.025 ± 0.006 µM
Final TGI% (SGC-7901 xenograft; SGC-7901, 25 mg/kg twice a day per oral gavage, day of study termination (Table S2)): 100%
Body weight changes% (SGC-7901 xenograft; SGC-7901, 25 mg/kg twice a day per oral gavage, before vs after treatment): 2%
Tumor Regression (SGC-7901 xenograft; SGC-7901, 25 mg/kg twice a day per oral gavage, mice with regression/group): 5/10
Final TGI% (SGC-7901 xenograft; SGC-7901, 6.25 mpk, bid, PO): 69%
Final TGI% (SGC-7901 xenograft; SGC-7901, 12.5 mpk, bid, PO): 83%
Final TGI% (HGC-27 xenograft; day of study termination): 85%
Body weight changes% (HGC-27 xenograft; before vs after treatment): 6%
Tumor Regression (HGC-27 xenograft; mice with regression/group): 0/10
Tumor AUC @ SS ([3]; BEL-7402, 3.125 mpk, bid, PO): 2219
Tumor AUC @ SS ([3]; BEL-7402, 6.25 mpk, bid, PO): 6713
Tumor AUC @ SS ([3]; BEL-7402, 12.5 mpk, bid, PO): 23886
Tumor AUC @ SS ([3]; BEL-7404, 3.125 mpk, bid, PO): 9251
Tumor AUC @ SS ([3]; BEL-7404, 6.25 mpk, bid, PO): 17558
Tumor AUC @ SS ([3]; BEL-7404, 12.5 mpk, bid, PO): 37142
Tumor AUC @ SS ([3]; BEL-7404, 12.5 mpk, single dose, PO (PK arm)): 30996
Tumor AUC @ SS ([3]; BGC-823 (model cell empty, from line above), 25 mpk, single dose, PO (PK arm)): 49597
Tumor AUC @ SS ([3]; BGC-823, 6.25 mpk, bid, PO): 9906
Tumor AUC @ SS ([3]; BGC-823, 12.5 mpk, bid, PO): 39971
Tumor AUC @ SS ([3]; BGC-823, 25 mpk, bid, PO): 70897
Tumor AUC @ SS ([3]; SGC-7901 (model cell empty, from line above), 25 mpk, single dose, PO (PK arm)): 147592
Tumor AUC @ SS ([3]; SGC-7901, 6.25 mpk, bid, PO): 25249
Tumor AUC @ SS ([3]; SGC-7901, 12.5 mpk, bid, PO): 48130
Tumor AUC @ SS ([3]; SGC-7901, 25 mpk, bid, PO): 78767
AUC ([3]; in vivo, 12.5 mg/kg, BEL-7402, 12.5 mpk, bid, PO): 26.1 µg·h/mL
AUC ([3]; in vivo, 12.5 mg/kg, BEL-7404, 12.5 mpk, bid, PO): 21.6 µg·h/mL
AUC ([3]; in vivo, 12.5 mg/kg, BEL-7404, 12.5 mpk, single dose, PO (PK arm)): 15.2 µg·h/mL
AUC ([3]; in vivo, 12.5 mg/kg, BGC-823, 12.5 mpk, bid, PO): 31.1 µg·h/mL
AUC ([3]; in vivo, 12.5 mg/kg, SGC-7901, 12.5 mpk, bid, PO): 26.9 µg·h/mL
AUC ([3]; plasma, 3.125 mg/kg, BEL-7402, 3.125 mpk, bid, PO): 5.38 µg·h/mL
AUC ([3]; plasma, 3.125 mg/kg, BEL-7404, 3.125 mpk, bid, PO): 3.56 µg·h/mL
AUC ([3]; plasma, 6.25 mg/kg, BEL-7402, 6.25 mpk, bid, PO): 12.6 µg·h/mL
AUC ([3]; plasma, 6.25 mg/kg, BEL-7404, 6.25 mpk, bid, PO): 6.56 µg·h/mL
AUC ([3]; plasma, 6.25 mg/kg, BGC-823, 6.25 mpk, bid, PO): 10.8 µg·h/mL
AUC ([3]; plasma, 6.25 mg/kg, SGC-7901, 6.25 mpk, bid, PO): 11.4 µg·h/mL
AUC ([3]; plasma, 25 mg/kg, BGC-823 (model cell empty, from line above), 25 mpk, single dose, PO (PK arm)): 73.3 µg·h/mL
AUC ([3]; plasma, 25 mg/kg, BGC-823, 25 mpk, bid, PO): 43.3 µg·h/mL
AUC ([3]; plasma, 25 mg/kg, SGC-7901 (model cell empty, from line above), 25 mpk, single dose, PO (PK arm)): 70.1 µg·h/mL
AUC ([3]; plasma, 25 mg/kg, SGC-7901, 25 mpk, bid, PO): 47.9 µg·h/mL
IC50 [4]: 0.089 µM
Final TGI% (HCCLM3 xenograft; day of study termination): 81%
Body weight changes% (HCCLM3 xenograft; before vs after treatment): 15.3%
Tumor Regression (HCCLM3 xenograft; mice with regression/group): 0/10
cells with >4N DNA content (polyploid cells) (SGC-7901 cells; control 3.1%): 21.6%
cells in G2/M phases (SGC-7901 cells; control 25.2%): 75.5%
cells with >4N DNA content (BEL-7402 cells; control 6.7%): 17.6%
cells in G2/M phases (BEL-7402 cells; control 25.6%): 57.0%
